{
  "source": "paper PMC11949107",
  "about": "“Polyunsaturated fatty acids and their endocannabinoid-related metabolites activity at human TRPV1 and TRPA1 ion channels expressed in HEK-293 cells” (PeerJ, 2025)",
  "key": {"human TRPV1 [1]": {"target": "T1, human TRPV1 (Homo sapiens, UniProt Q8NER1)", "T1 construct": "Life Technologies (cells); host or cells: Flp-In T-REx HEK-293", "T1 sequence (Q8NER1 whole entry)": "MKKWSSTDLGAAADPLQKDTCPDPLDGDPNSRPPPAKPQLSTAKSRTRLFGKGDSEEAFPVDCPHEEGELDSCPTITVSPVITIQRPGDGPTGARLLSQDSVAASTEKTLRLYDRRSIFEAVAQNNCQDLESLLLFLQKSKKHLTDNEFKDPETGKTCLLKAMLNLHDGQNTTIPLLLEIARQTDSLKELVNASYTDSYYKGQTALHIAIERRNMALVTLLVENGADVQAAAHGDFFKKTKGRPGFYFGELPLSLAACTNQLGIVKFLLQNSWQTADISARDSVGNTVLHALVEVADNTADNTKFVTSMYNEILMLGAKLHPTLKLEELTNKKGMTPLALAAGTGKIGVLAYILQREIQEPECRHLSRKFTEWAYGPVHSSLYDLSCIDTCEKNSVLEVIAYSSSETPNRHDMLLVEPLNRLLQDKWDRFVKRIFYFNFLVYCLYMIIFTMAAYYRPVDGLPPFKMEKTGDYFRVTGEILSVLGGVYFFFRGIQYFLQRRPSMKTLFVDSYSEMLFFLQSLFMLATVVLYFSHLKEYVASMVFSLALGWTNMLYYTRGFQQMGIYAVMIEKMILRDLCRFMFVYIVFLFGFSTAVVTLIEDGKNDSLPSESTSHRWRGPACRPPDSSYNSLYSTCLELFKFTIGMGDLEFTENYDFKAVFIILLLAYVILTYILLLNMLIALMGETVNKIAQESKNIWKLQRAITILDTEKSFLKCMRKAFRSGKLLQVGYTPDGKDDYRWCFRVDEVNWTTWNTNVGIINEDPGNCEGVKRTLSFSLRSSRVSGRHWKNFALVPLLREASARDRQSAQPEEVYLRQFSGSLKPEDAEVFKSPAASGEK", "test": "PMA (phorbol ester) potentiation of TRPV1 responses in HEK-293 TRPV1 cells", "type": "cell-based", "settings": "for [Ca]i response (change in fluorescence), individual replicates: sheet Figure 5(C)", "protocol": "Intracellular calcium [Ca]i levels were assessed using the calcium 5 kit from Molecular Devices (# R8186, Sunnyvale, CA, USA) on a FlexStation 3 Microplate Reader (Molecular Devices, Sunnyvale, CA, USA). […] Probenecid (cat # 50027; Biotium) which helps to prevent expulsion of calcium indicator from the cells was added to a final concentration of 1.25 mM. 90 µL of the dye were loaded into each well of the plate and incubated for 1 h before reading in the FlexStation 3 at 37 °C. Fluorescence was recorded every 2 s (λ excitation = 485 nm, λ emission = 525 nm) for 5 min. After 1 min of baseline recording, 20 µL of the drug, dissolved in HBSS with 1% dimethyl sulfoxide (DMSO) (cat # D2650; Sigma-Aldrich, Melbourne, Australia) was added (final DMSO concentration was 0.1% in well).\nWe initially determined the effect of PMA, another phorbol ester that is a protein kinase C activator ([Jiang & Fleet, 2012]) on HEK-293 TRPV1 expressing cells.\n(A) Response of HEK-293 TRPV1 expressing cells for PMA at various concentration. […] Drugs were added for the duration of the bar; (D) The effects of PUFAs after potentiation of TRPV1 by PMA. […] Changes in [Ca]i are expressed as percentage of the pre-drug baseline, with the response to PMA alone at 5 min subtracted. The black circles represent the response of PUFAs without PMA pretreatment while the pink circles represent the response of PUFAs after PMA potentiation."}, "HEK-293 EV cells": {"system": "HEK-293 EV cells", "test": "Calcium 5 dye [Ca]i assay in HEK-293 empty vector (EV) cells", "type": "cell-based, human", "settings": "10 µM; HEK-293 EV cells; percentage of predrug baseline", "outline": "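Tetracycline at 1 µg ml^−1 was added 4 h before testing; cells were loaded with Calcium 5 dye for 1 h and read at 37 °C, with drug added after 1 min baseline (final 0.1% DMSO). The response was the % change from the 60 s baseline after solvent subtraction, and EC50/Emax came from a three-parameter logistic fit, reported as pEC50.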"}, "human TRPV1 [2]": {"target": "T1, human TRPV1", "test": "Calcium 5 dye [Ca]i assay in HEK-293 Flp-In T-REx cells expressing TRPV1 (agonist response)", "type": "cell-based", "settings": "for Change in Ca5 fluorescence, individual experiments (CRC raw data): TRPV1 cells", "outline": "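Tetracycline-induced (1 µg ml^−1, 4 h) HEK-293 T-REx cells loaded with Calcium 5 dye plus 1.25 mM probenecid for 1 h; agonist added after 1 min baseline (0.1% DMSO final), fluorescence (485/525 nm) read every 2 s for 5 min at 37 °C. Response as % change from baseline, solvent-subtracted; EC50/Emax from three-parameter logistic fit, given as pEC50.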"}},
  "note": "Values joined by “and” are separate entries in the source; they are usually repeats but may differ in a detail not shown here. Equal entries are not always repeated.",
  "data": [
    {"compound": "COc1cc(CNC(=O)CCCC/C=C/C(C)C)ccc1O", "note": "[Capsaicin]", "values": [
      {"measurement": "[Ca]i response (change in fluorescence), individual replicates", "setting": "human TRPV1 [1]; Capsaicin alone, concentration -5 (log)", "result": "595.541 and 626.277 and 602.254 and 594.454 and 590.074 and 541.046 and 516.667"},
      {"measurement": "[Ca]i response (change in fluorescence), individual replicates", "setting": "human TRPV1 [1]; Capsaicin alone, concentration -6 (log)", "result": "552.521 and 565.654 and 354.62 and 545.98 and 564.249 and 584.634 and 580.153"},
      {"measurement": "[Ca]i response (change in fluorescence), individual replicates", "setting": "human TRPV1 [1]; Capsaicin alone, concentration -7.52288 (log)", "result": "532.091 and 453.931 and 457.847 and 272.568"},
      {"measurement": "[Ca]i response (change in fluorescence), individual replicates", "setting": "human TRPV1 [1]; Capsaicin alone, concentration -8 (log)", "result": "105.919 and 177.189 and 79.3195 and 30.3097 and 60.6584 and 319.686 and 144.106"},
      {"measurement": "[Ca]i response (change in fluorescence), individual replicates", "setting": "human TRPV1 [1]; Capsaicin alone, concentration -8.52288 (log)", "result": "2.139 and 1.734 and 6.239 and 49.459 and 10.1781 and -5.201 and 2.9246 and 2.502 and 16.6604 and 25.7998 and 147.975 and 180.247"},
      {"measurement": "[Ca]i response (change in fluorescence), individual replicates", "setting": "human TRPV1 [1]; Capsaicin alone, concentration -9 (log)", "result": "2.491 and -0.4612 and 4.215 and 6.618 and 6.288 and 4.839 and 3.5734 and 0.9298 and 2.514 and -2.854 and 3.184 and 5.152"},
      {"measurement": "[Ca]i response (change in fluorescence), individual replicates", "setting": "human TRPV1 [1]; Capsaicin alone, concentration -10 (log)", "result": "-1.109 and 5.021 and -0.4125 and -2.624 and 0.2107"},
      {"measurement": "[Ca]i response (change in fluorescence), individual replicates", "setting": "human TRPV1 [1]; Capsaicin post-PMA, concentration -5 (log)", "result": "496.984 and 417.588"},
      {"measurement": "[Ca]i response (change in fluorescence), individual replicates", "setting": "human TRPV1 [1]; Capsaicin post-PMA, concentration -6 (log)", "result": "544.156 and 380.208 and 494.359 and 527.721 and 402.607 and 284.086"},
      {"measurement": "[Ca]i response (change in fluorescence), individual replicates", "setting": "human TRPV1 [1]; Capsaicin post-PMA, concentration -7.52288 (log)", "result": "396.653 and 394.172 and 495.495 and 292.964"},
      {"measurement": "[Ca]i response (change in fluorescence), individual replicates", "setting": "human TRPV1 [1]; Capsaicin post-PMA, concentration -8 (log)", "result": "292.695 and 167.258 and 234.279 and 203.284 and 320.763 and 311.597 and 228.909"},
      {"measurement": "[Ca]i response (change in fluorescence), individual replicates", "setting": "human TRPV1 [1]; Capsaicin post-PMA, concentration -8.52288 (log)", "result": "137.626 and 123.803 and 108.674 and 62.3148 and 135.616 and 311.329 and 67.1431 and 138.197 and 73.5753 and 51.0772"},
      {"measurement": "[Ca]i response (change in fluorescence), individual replicates", "setting": "human TRPV1 [1]; Capsaicin post-PMA, concentration -9 (log)", "result": "41.3533 and 39.7921 and 40.9396 and 31.7003 and 53.9609 and 52.809 and 35.9713 and 49.984 and 39.816 and 29.7359 and 17.3567"},
      {"measurement": "[Ca]i response (change in fluorescence), individual replicates", "setting": "human TRPV1 [1]; Capsaicin post-PMA, concentration -10 (log)", "result": "44.473 and 19.9944 and 42.7227 and 36.7683 and 31.3318 and 10.3982"},
      {"measurement": "HBSS post Capsaicin, individual experiments", "setting": "human TRPV1 [1]; HBSS after capsaicin 10 nM", "result": "14.4552 and 24.0374 and 16.1823"},
      {"measurement": "TRPV1 response after exposure to PMA", "setting": "human TRPV1 [1]; PMA 100 nM, 5 min pretreatment", "result": "amplified"},
      {"measurement": "Drugs post-PMA, individual experiments", "setting": "human TRPV1 [1]; capsaicin 10 nM after PMA 100 nM for 5 min, response to PMA alone subtracted", "result": "292.695 and 167.258 and 234.279 and 203.284 and 320.763"},
      {"measurement": "Capsaicin response without PMA, individual experiments", "setting": "human TRPV1 [1]; capsaicin 10 nM alone", "result": "226.255 and 133.384 and 132.765"},
      {"measurement": "Drugs alone, individual experiments", "setting": "human TRPV1 [1]; capsaicin 10 nM without PMA pretreatment", "result": "79.3195 and 30.3097 and 60.6584"},
      {"measurement": "Change of Ca5 fluorescence, Mean ± SEM, EV (10 µM)", "setting": "HEK-293 EV cells", "result": "12 ± 2", "unit": "%"},
      {"measurement": "Elevation of [Ca]i in HEK-293 TRPV1 cells compared with HEK-293 EV cells", "setting": "human TRPV1 [2]; 10 µM", "result": "significantly greater"},
      {"measurement": "Change of Ca5 fluorescence, Mean ± SEM, TRPV1 (10 µM)", "setting": "human TRPV1 [2]; 10 µM, HEK-293 TRPV1 cells, percentage of predrug baseline", "result": "350 ± 33", "unit": "%"},
      {"measurement": "Emax at 30 µM", "setting": "human TRPV1 [2]; HEK293, read-out: Emax ± SEM % TRPV1 (30 µM)", "result": "340 ± 19", "unit": "%"},
      {"measurement": "TRPV1 response, Mean± SEM (N)", "setting": "human TRPV1 [2]; highest concentration of capsaicin (10 µM)", "result": "337 ± 56 (21)"},
      {"measurement": "Change in Ca5 fluorescence, individual experiments (CRC raw data)", "setting": "human TRPV1 [2]; log concentration -5 (M)", "result": "470.33 and 172.951 and 473.364 and 509.446 and 171.926 and 427.551 and 233.547 and 218.906 and 339.94 and 178.11 and 253.39 and 197.967 and 463.085 and 202.235 and 472.577 and 462.537 and 153.101 and 535.708 and 529.643 and 524.333"},
      {"measurement": "Change in Ca5 fluorescence, individual experiments (CRC raw data)", "setting": "human TRPV1 [2]; log concentration -6 (M)", "result": "464.868 and 165.225 and 461.65 and 520.53 and 312.706 and 3.214 and 3.201 and 3.988 and 340.169 and 187.118 and 486.026 and 246.165 and 485.213"},
      {"measurement": "Change in Ca5 fluorescence, individual experiments (CRC raw data)", "setting": "human TRPV1 [2]; log concentration -7 (M)", "result": "449.588 and 119.691 and 406.342 and 2.432 and 332.379 and 480.521 and 322.808 and 86.6522 and 310.081 and 147.599 and 431.922 and 467.245"},
      {"measurement": "Change in Ca5 fluorescence, individual experiments (CRC raw data)", "setting": "human TRPV1 [2]; log concentration -7.52288 (M)", "result": "356.845 and 111.895 and 323.852 and 3.161 and 274.896 and 259.762 and 73.7365 and 34.2854 and 273.106 and 132.986 and 393.207 and 420.023 and 372.386"},
      {"measurement": "Change in Ca5 fluorescence, individual experiments (CRC raw data)", "setting": "human TRPV1 [2]; log concentration -8 (M)", "result": "5.385 and 96.7773 and 164.958 and 3.572 and 5.951 and 47.2327 and 7.175 and 1.822 and 309.776 and 125.652 and 333.972 and 270.42 and 149.94"},
      {"measurement": "Change in Ca5 fluorescence, individual experiments (CRC raw data)", "setting": "human TRPV1 [2]; log concentration -8.52288 (M)", "result": "11.2452 and 61.0751 and 5.8468 and 39.7141 and 6.931 and 3.397 and 5.378 and 0.9947 and 335.917 and 103.111 and 65.1245 and 4.361 and 1.4546"},
      {"measurement": "Change in Ca5 fluorescence, individual experiments (CRC raw data)", "setting": "human TRPV1 [2]; log concentration -9 (M)", "result": "6.236 and 19.5627 and 8.465 and 57.6325 and 2.89 and 1.796 and 10.3317 and 2.025 and 308.34 and 50.3171 and 51.1654 and 4.4283 and 2.369 and 122.651 and 6.769 and 5.267"},
      {"measurement": "Change in Ca5 fluorescence", "setting": "human TRPV1 [2]; maximal effective concentration, HEK-293 TRPV1 cells, dye saturation control", "result": "435 ± 15", "unit": "%"}
    ]}
  ]
}
